Molecules are shown by their SMILES.

Consider 1 molecule from patent US20250381273A1, “Augmenting Mitochondria in Immune Cells for Improved Cancer Immunotherapy” (LEIBNIZ-INSTITUT FÜR IMMUNTHERAPIE (LIT), priority 2022, published 2025).

In assay [1] the test system is mouse Mito-DsRed BMSCs or CD8+ T cells. Put plainly: Inhibitor drug treatment study, mouse co-culture. In kind it is cell-based. As to conditions: 1-10 μM, data not shown. As for the experimental part:
(§1) For pharmacological inhibition studies, both mouse and human Mito-DsRed BMSCs or CD8+ T cells were treated with 1-10 μM of farnesyltransferase/geranylgeranyltransferase 1 inhibitor (L-778123) (Biomol) incubated separately in their respective basal media for 7 hrs before or during co-culture. Cell viability of the different drug treatments was determined using the Trypan Blue exclusion test and quantified manually using a hemacytometer. All experiments were performed on at least 3-6 biological replicates/donors per condition.

Assay [2] deals with nanotube-mediated mitochondria transfer. Particulars: Nature Nanotechnology (2022) 17, 98-106; cited from earlier work.
In assay [3] the test system is human Mito-DsRed BMSCs or CD8+ T cells. Put plainly: Inhibitor drug treatment study, human co-culture. In kind it is cell-based. As to conditions: 1-10 μM, data not shown. As for the experimental part:
as §1

In the case of `N#Cc1ccc(Cn2cncc2CN2CCN(c3cccc(Cl)c3)C(=O)C2)cc1` [L-788,123], the “mitochondrial transfer in co-culture” value in assay [1] and in assay [3] was “confirmed that TNTs is a primary mediator of mitochondrial transfer” in each case. Moreover, the nanotube-mediated mitochondria transfer entry in assay [2] is given as “partially block”.
